Data from ChEMBL document CHEMBL3286286, “2-(2-Arylphenyl)benzoxazole As a Novel Anti-Inflammatory Scaffold: Synthesis and Biological Evaluation” (ACS Med Chem Lett, 2014).

What was measured:
[1] = tested on: Rattus norvegicus; assay: Antiinflammatory activity in Wistar albino rat assessed as reduction in carrageenan-induced hind paw volume at 12.5 mg/kg, ip administered 10 mins after carrageenan-challenge measured up to 3 hrs; assay type: functional; conditions: route intraperitoneal
[2] = tested on: Rattus norvegicus; assay: Antiinflammatory activity in Wistar albino rat assessed as reduction in carrageenan-induced hind paw volume at 25 mg/kg, ip administered 10 mins after carrageenan-challenge measured up to 3 hrs; assay type: functional; conditions: route intraperitoneal
[3] = target: T1, Prostaglandin G/H synthase 1 (Ovis aries) (UniProt P05979); assay: Inhibition of ovine COX1 using arachidonic acid as substrate at 10 uM
T1 sequence (whole entry): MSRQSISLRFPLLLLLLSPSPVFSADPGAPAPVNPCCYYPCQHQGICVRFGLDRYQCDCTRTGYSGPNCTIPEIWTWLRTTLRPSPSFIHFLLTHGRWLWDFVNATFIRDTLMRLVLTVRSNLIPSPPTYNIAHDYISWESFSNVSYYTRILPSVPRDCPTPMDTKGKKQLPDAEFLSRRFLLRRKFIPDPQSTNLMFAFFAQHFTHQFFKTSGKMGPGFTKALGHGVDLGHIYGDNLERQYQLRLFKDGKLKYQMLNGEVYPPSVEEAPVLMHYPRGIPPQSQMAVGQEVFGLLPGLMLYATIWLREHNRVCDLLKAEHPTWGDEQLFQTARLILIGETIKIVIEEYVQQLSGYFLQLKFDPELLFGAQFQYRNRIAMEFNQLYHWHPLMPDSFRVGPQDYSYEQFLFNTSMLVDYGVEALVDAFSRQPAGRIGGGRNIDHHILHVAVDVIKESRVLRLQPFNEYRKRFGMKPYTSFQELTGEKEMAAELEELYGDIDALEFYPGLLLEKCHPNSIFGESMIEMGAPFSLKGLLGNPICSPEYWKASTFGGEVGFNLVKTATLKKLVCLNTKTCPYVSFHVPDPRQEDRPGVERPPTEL

[4] = Selectivity index, ratio of IC50 for ovine COX1 to IC50 for human recombinant COX2
[5] = target: T2, Prostaglandin G/H synthase 1 (Ovis aries, UniProt P05979); assay: Inhibition of ovine COX1 using arachidonic acid as substrate
T2 sequence (P05979 whole entry): T1 sequence (whole entry)

[6] = target: T3, Prostaglandin G/H synthase 2 (Homo sapiens, UniProt P35354); assay: Inhibition of human recombinant COX2 using arachidonic acid as substrate
T3 sequence (P35354 whole entry): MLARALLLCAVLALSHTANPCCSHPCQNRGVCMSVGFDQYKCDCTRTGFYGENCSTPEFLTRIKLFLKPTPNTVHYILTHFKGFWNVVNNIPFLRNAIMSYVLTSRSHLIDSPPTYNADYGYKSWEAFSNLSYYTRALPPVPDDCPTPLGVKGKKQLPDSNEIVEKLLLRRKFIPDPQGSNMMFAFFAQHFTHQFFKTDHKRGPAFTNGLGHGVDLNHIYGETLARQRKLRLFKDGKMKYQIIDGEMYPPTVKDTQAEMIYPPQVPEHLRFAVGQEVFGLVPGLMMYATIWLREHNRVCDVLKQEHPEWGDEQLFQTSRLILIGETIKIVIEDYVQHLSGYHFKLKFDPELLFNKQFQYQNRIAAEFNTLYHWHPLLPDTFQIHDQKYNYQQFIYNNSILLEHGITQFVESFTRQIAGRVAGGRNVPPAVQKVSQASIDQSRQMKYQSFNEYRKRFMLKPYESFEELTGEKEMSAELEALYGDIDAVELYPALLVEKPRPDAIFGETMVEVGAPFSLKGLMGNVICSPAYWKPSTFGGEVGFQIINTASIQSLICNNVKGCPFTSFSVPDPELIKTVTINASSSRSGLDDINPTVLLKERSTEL

[7] = Selectivity for human recombinant COX2 to ovine COX1
[8] = target: T4, Prostaglandin G/H synthase 2 (Homo sapiens) (UniProt P35354); conditions: at 10 µM
T4 sequence (whole entry): T3 sequence (P35354 whole entry)
Description: Inhibition of human recombinant COX2 using arachidonic acid as substrate at 10 uM

Row | Structure (SMILES) | inhibition in vivo at 12.5 mg/kg [1] | inhibition in vivo at 25 mg/kg [2] | inhibition [3] | Ratio IC50 [4] | IC50 [5] | IC50 [6] | Selectivity ratio [7] | inhibition [8]
1 | Cc1ccc(-c2cc(C(F)(F)F)nn2-c2ccc(S(N)(=O)=O)cc2)cc1 [CELECOXIB] | 60.6% | 74.6% | – | – | – | – | – | –
2 | COc1ccc(-c2ccccc2-c2nc3ccccc3o2)cc1Cl | 53.9% | 64.4% | 6.45% | 69.8 | 46.8 µM | 670 nM | 12.6 | 81.4%
3 | FC(F)(F)c1ccc(-c2ccccc2-c2nc3ccccc3o2)cc1 | – | – | 3.45% | – | – | – | 3.38 | 11.7%
4 | N#Cc1ccc(-c2ccccc2-c2nc3ccccc3o2)cc1 | – | – | 8.46% | – | – | – | 4.83 | 40.9%
5 | O=Cc1ccc(-c2ccccc2-c2nc3ccccc3o2)cc1 | – | – | 6.58% | – | – | – | 8.81 | 58%
6 | CSc1ccc(-c2ccccc2-c2nc3ccccc3o2)cc1 | – | – | 4.07% | – | – | – | 10.7 | 43.5%
7 | c1ccc(-c2ccccc2-c2nc3ccccc3o2)cc1 | – | – | 24% | – | – | – | 0.44 | 10.6%
8 | Fc1ccc(-c2ccccc2-c2nc3ccccc3o2)cc1 | – | – | 1.65% | – | – | – | 1.57 | 8.46%
9 | O=C(O)Cc1ccccc1Nc1c(Cl)cccc1Cl [DICLOFENAC] | 67.3% | 84.6% | – | – | – | – | – | –
10 | COc1cccc(-c2ccccc2-c2nc3ccccc3o2)c1OC | – | – | 74.9% | – | – | – | 0.8 | 59.9%
11 | CS(=O)(=O)c1ccc(-c2ccccc2-c2nc3ccccc3o2)cc1 | 62.5% | 75% | 10.8% | 33.6 | 45.1 µM | 1340 nM | 6.96 | 75.1%
12 | CC(C)Oc1ccc(-c2ccccc2-c2nc3ccccc3o2)cc1Cl | – | – | 2.19% | – | – | – | 15.5 | 33.9%
13 | Oc1ccc(-c2ccccc2-c2nc3ccccc3o2)cc1Cl | 68.3% | 82.7% | 7.56% | 113 | 46.2 µM | 410 nM | 12.6 | 94.9%
14 | COc1ccc(-c2ccccc2-c2nc3ccccc3o2)cc1 | – | – | 19.1% | – | – | – | 0.78 | 14.8%
15 | COc1ccc(-c2ccccc2-c2nc3ccccc3o2)cc1OC1CCCC1 | – | – | 17.1% | – | – | – | 0.87 | 14.8%
16 | COc1ccc(-c2ccccc2-c2nc3ccccc3o2)cc1OC | – | – | 58.2% | – | – | – | 1.49 | 86.6%
17 | Clc1cc(-c2ccccc2-c2nc3ccccc3o2)ccc1OCc1ccccc1 | – | – | 10.3% | – | – | – | 1.65 | 17%
